According to patent US7915402B2, “Antioxidant inflammation modulators: oleanolic acid derivatives with saturation in the C-ring” (Reata Pharmaceuticals, Inc., priority 2008, dated 2011):
Several values for one entry are separate records, joined by “and”; a condition that tells them apart may be missing. Equal values may be shown once.

Columns and labels:
[1] = CNS and lung tissue concentrations after oral dosing in monkeys; type: in vivo; conditions: cynomolgus monkey; for excess of mean CNS concentration compared to the dose necessary to suppress inflammation in vitro: vs NO IC50 about 45 nM; for Mean 404-02 CNS Tissue Content (ng/g) ± SEM: day 15, about 3 h after dosing; for Mean 404-02 CNS Tissue Concentration (nM) ± SEM: conversion assumes tissue density 1 g/mL
Method: CNS and lung concentrations following oral dosing: 2 male and 2 female cynomolgus monkeys were administered 404-02 at 0.5, 5, 25 or 75 mg/kg/day doses via oral gavage, in addition to a control (non-treatment) group with 2 animals per sex. Animals were sacrificed approximately 3 hours after dosing on day 15 following harvest of brain and lung tissues. Each sample collected was rinsed in 1× isotonic phosphate buffered saline and blotted dry before weighing. Harvested tissue slices were transferred to cryovials and stored at −80° C. until processing and LC-MS/MS analysis. Standard curves were derived for 404-02 in homogenates of these tissues and were used to quantify the day 15 samples.

Ferritin heavy chain = test: Induction of ferritin heavy chain mRNA (qPCR); type: cell-based, human; conditions: MDA-MB-435 cells, 16 hours
Method: FIG. 24. Induction of Ferritin Heavy Chain. MDA-MB-435 human melanoma cells were treated with vehicle (DMSO) or the indicated compounds and concentrations for 16 hours. Ferritin heavy chain mRNA levels were quantified using qPCR and were normalized relative to a DMSO-treated sample run in parallel. Values are averages of duplicate wells.
Nrf2 target gene induction. MDA-MB-435 human melanoma cells were treated with vehicle (DMSO) or the indicated compounds and concentrations for 16 hours. HO-1, thioredoxin reductase-1 (TrxR1), γ-glutamylcysteine synthetase (γ-GCS), and ferritin heavy chain mRNA levels were quantified using qPCR and were normalized relative to a DMSO-treated sample run in parallel. Values are averages of duplicate wells. Primer sequences are as follows.

RAW264.7 macrophages = test: Cell viability, WST-1 reagent; type: cell-based, mouse; conditions: Mus musculus, RAW264.7 (20 ng/ml IFNγ)
Procedure, shortened: (§1)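 Cells pre-treated with DMSO or compound at various nM concentrations for 2 h, then stimulated with 20 ng/ml recombinant mouse IFNγ for 24 h. Nitrite in medium measured by Griess reagent; viability read by WST-1.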

[2] = Plasma pharmacokinetics after oral dosing in monkeys; type: in vivo; conditions: cynomolgus monkey; for Mean Maximum 404-02 Plasma Concentration (nM) ± SEM / Mean Maximum 404-02 Plasma Concentration (ng/mL) ± SEM: oral gavage
Method: Doses were prepared in sesame oil and individualized to body weight on the day of dosing. Blood was drawn prior to dosing and at 1, 2, 4, 8 and 24 hours post -dose on days 1 and 12. Blood samples were collected from the femoral artery/vein for determination of 404-02 plasma concentrations. Blood was placed in tubes containing K3EDTA and stored on ice until centrifugation at room temperature. The isolated plasma was transferred to cryovials and stored at −80° C. until sample processing and LC -MS/MS analysis. Extracted plasma standard curves were prepared from fresh stock solutions and analyzed prior to study samples.
Population mean pharmacokinetic parameter estimates were obtained by performing non-compartmental analysis of the 404-02 plasma concentration-versus-time data using WinNonlin™ software version 5.2.
Pharmacokinetic parameters obtained using non-compartmental analysis, WinNonlin™ version 5.2.
Pharmacokinetic parameters were obtained using non-compartmental analysis using WinNonlin™ version 5.2 software.

[3] = tested on: IFNγ-induced NO production in RAW264.7 macrophages; test: Suppression of IFNγ-induced NO production (Griess reagent); type: cell-based, mouse; conditions: Mus musculus; RAW264.7, 20 ng/ml IFNγ 24 h, 2 h pre-treatment
Procedure, shortened: as §1

[4] = Plasma pharmacokinetics after oral dosing in rats; type: in vivo, Sprague Dawley rats; conditions: SD rats, oral gavage
Method: Compound 404-02 reaches high concentrations in the lung and CNS of rats following oral dosing: To assess basic pharmacokinetic parameters following oral dosing, 9 male and 9 female Sprague Dawley (SD) rats were administered 404-02 at 1, 10 or 50 mg/kg doses via oral gavage. Doses were prepared in sesame oil and individualized to body weight on the day of dosing. Blood was drawn at 0, 1, 2, 4, 8 and 24 hours post-dose on days 1 and 15. Blood was collected from the orbital sinus after carbon dioxide/oxygen inhalation for determination of 404-02 plasma concentrations. Plasma was transferred to cryovials and stored at −80° C. until processing and LC-MS/MS analysis. A standard curve was derived for 404-02 in rat plasma, and quantification of experimental results was based on this standard curve.
Pharmacokinetic parameters were obtained using non-compartmental analysis, WinNonlin™ version 5.2.

[5] = oral gavage, 0.5 mg/kg/day, day 15
[6] = oral gavage, 5 mg/kg/day, day 15
[7] = oral gavage, 25 mg/kg/day, day 15
[8] = oral gavage, 75 mg/kg/day, day 15
[9] = 1 mg/kg/day, day 1, n=9/sex/dose level
[10] = 1 mg/kg/day, day 15, n=9/sex/dose level
[11] = 10 mg/kg/day, day 1, n=9/sex/dose level
[12] = 10 mg/kg/day, day 15, n=9/sex/dose level
[13] = 50 mg/kg/day, day 1, n=9/sex/dose level
[14] = 50 mg/kg/day, day 15, n=9/sex/dose level

SMILES: CC1(C)CC[C@]2(C(=O)NCC(F)(F)F)CC[C@]3(C)[C@H](C(=O)C[C@@H]4[C@@]5(C)C=C(C#N)C(=O)C(C)(C)[C@@H]5CC[C@]43C)[C@@H]2C1 [Compound 63102, (4aS,6aR,6bR,8aR,12aR,12bR,14aR,14bS)-11-cyano-2,2,6a,6b,9,9,12a-heptamethyl-10,14-dioxo-N-(2,2,2-trifluoroethyl)-1,2,3,4,4a,5,6,6a,6b,7,8,8a,9,10,12a,12b,13,14,14a,14b-icosahydropicene-4a-carboxamide]
- concentration at 3 h ([1]; both sexes, lung, oral gavage, 25 mg/kg/day, day 15, read-out: Mean 404-02 Lung Tissue Concentration (nM) ± SEM): 246 ± 87 nM
- excess of mean CNS concentration compared to the dose necessary to suppress inflammation in vitro ([1]; 0.5 mg/kg/day): 48 fold
- excess of mean CNS concentration compared to the dose necessary to suppress inflammation in vitro ([1]; 5 mg/kg/day): 44 fold
- excess of mean CNS concentration compared to the dose necessary to suppress inflammation in vitro ([1]; 25 mg/kg/day): 37 fold
- increase of mean lung tissue exposure compared to the dose necessary to suppress inflammation in vitro ([1]; 75 mg/kg/day): 133 fold
- excess of mean CNS concentration compared to the dose necessary to suppress inflammation in vitro ([1]; 75 mg/kg/day): 75 fold
- Mean 404-02 Lung Tissue Concentration (nM) ± SEM [1, 5]: 1227 ± 508 nM
- Mean 404-02 Lung Tissue Content (ng/g) ± SEM [1, 5]: 705 ± 292 ng/g
- Mean 404-02 CNS Tissue Content (ng/g) ± SEM ([1]; oral gavage, 0.5 mg/kg/day): 1198 ± 712 ng/g
- Mean 404-02 Lung Tissue Concentration (nM) ± SEM [1, 6]: 55 ± 27 nM
- Mean 404-02 Lung Tissue Content (ng/g) ± SEM [1, 6]: 24 ± 15 ng/g
- Mean 404-02 CNS Tissue Content (ng/g) ± SEM ([1]; oral gavage, 5 mg/kg/day): 1090 ± 564 ng/g
- Mean 404-02 CNS Tissue Concentration (nM) ± SEM [1, 6]: 1900 ± 982 nM
- Mean 404-02 Lung Tissue Content (ng/g) ± SEM [1, 7]: 141 ± 50 ng/g
- Mean 404-02 CNS Tissue Content (ng/g) ± SEM ([1]; oral gavage, 25 mg/kg/day): 930 ± 352 ng/g
- Mean 404-02 CNS Tissue Concentration (nM) ± SEM [1, 7]: 1618 ± 612 nM
- Mean 404-02 Lung Tissue Concentration (nM) ± SEM [1, 8]: 5929 ± 1435 nM
- Mean 404-02 Lung Tissue Content (ng/g) ± SEM [1, 8]: 3405 ± 824 ng/g
- Mean 404-02 CNS Tissue Content (ng/g) ± SEM ([1]; oral gavage, 75 mg/kg/day): 1898 ± 496 ng/g
- Mean 404-02 CNS Tissue Concentration (nM) ± SEM [1, 8]: 3305 ± 864 nM
- Ferritin heavy chain mRNA induction: concentration needed compared with unsaturated counterpart (402, 404) (Ferritin heavy chain): higher concentrations
- IC50 (RAW264.7 macrophages): > 0.2 µM
- Mean Maximum 404-02 Plasma Concentration (nM) ± SEM ([2]; 0.5 mg/kg/d, day 1, n=4): 3.4 ± 0.61 nM
- Mean Maximum 404-02 Plasma Concentration (ng/mL) ± SEM ([2]; 0.5 mg/kg/d, day 1, n=4): 1.95 ± 0.35 ng/mL
- Mean Maximum 404-02 Plasma Concentration (ng/mL) ± SEM ([2]; 0.5 mg/kg/d, day 12, n=4): 2.65 ± 0.6 ng/mL
- Mean Maximum 404-02 Plasma Concentration (nM) ± SEM ([2]; 0.5 mg/kg/d, day 12, n=4, listed as 404-02, 0.5 mg/kg/day): 4.6 nM and 4.6 ± 1.0 nM
- Mean Maximum 404-02 Plasma Concentration (nM) ± SEM ([2]; 5 mg/kg/d, day 1, n=4): 17.6 ± 6.6 nM
- Mean Maximum 404-02 Plasma Concentration (ng/mL) ± SEM ([2]; 5 mg/kg/d, day 1, n=4): 10.1 ± 3.8 ng/mL
- Mean Maximum 404-02 Plasma Concentration (ng/mL) ± SEM ([2]; 5 mg/kg/d, day 12, n=4): 7.3 ± 1.7 ng/mL
- Mean Maximum 404-02 Plasma Concentration (nM) ± SEM ([2]; 5 mg/kg/d, day 12, n=4, listed as 404-02, 5 mg/kg/day): 12.7 nM and 12.7 ± 2.9 nM
- Mean Maximum 404-02 Plasma Concentration (nM) ± SEM ([2]; 25 mg/kg/d, day 1, n=4): 29.3 ± 2.3 nM
- Mean Maximum 404-02 Plasma Concentration (ng/mL) ± SEM ([2]; 25 mg/kg/d, day 1, n=4): 16.8 ± 1.3 ng/mL
- Mean Maximum 404-02 Plasma Concentration (ng/mL) ± SEM ([2]; 25 mg/kg/d, day 12, n=4): 10.0 ± 3.7 ng/mL
- Mean Maximum 404-02 Plasma Concentration (nM) ± SEM ([2]; 25 mg/kg/d, day 12, n=4, listed as 404-02, 25 mg/kg/day): 17.5 nM and 17.5 ± 6.4 nM
- Mean Maximum 404-02 Plasma Concentration (nM) ± SEM ([2]; 75 mg/kg/d, day 1, n=4): 33.8 ± 4.7 nM
- Mean Maximum 404-02 Plasma Concentration (ng/mL) ± SEM ([2]; 75 mg/kg/d, day 1, n=4): 19.4 ± 2.7 ng/mL
- Mean Maximum 404-02 Plasma Concentration (nM) ± SEM ([2]; 75 mg/kg/d, day 12, n=4, listed as 404-02, 75 mg/kg/day): 48.6 nM
- increase in AUC0-24hr after 12 days of dosing compared to day 1 ([2]; oral, 75 mg/kg dose level): 1.6 fold
- accumulation (AUC day 12 vs day 1) ([2]; oral, other dose levels (0.5, 5, 25 mg/kg/day)): Accumulation was not observed
- IC50 [3]: ~0.045 µM
- Mean Maximum 404-02 Plasma Concentration (nM) ± SEM [4, 9]: 5.7 ± 1.1 nM
- Mean Maximum 404-02 Plasma Concentration (ng/mL) ± SEM [4, 9]: 3.3 ± 0.65 ng/mL
- Mean Maximum 404-02 Plasma Concentration (nM) ± SEM [4, 10]: 11.0 ± 1.6 nM
- Mean Maximum 404-02 Plasma Concentration (ng/mL) ± SEM [4, 10]: 6.3 ± 0.9 ng/mL
- Mean Maximum 404-02 Plasma Concentration (nM) ± SEM [4, 11]: 116 ± 28.7 nM
- Mean Maximum 404-02 Plasma Concentration (ng/mL) ± SEM [4, 11]: 66 ± 16.5 ng/mL
- Mean Maximum 404-02 Plasma Concentration (nM) ± SEM [4, 12]: 210 ± 42.3 nM
- Mean Maximum 404-02 Plasma Concentration (ng/mL) ± SEM [4, 12]: 144 ± 24.3 ng/mL
- Mean Maximum 404-02 Plasma Concentration (nM) ± SEM [4, 13]: 1241 ± 171 nM
- Mean Maximum 404-02 Plasma Concentration (ng/mL) ± SEM [4, 13]: 713 ± 98.2 ng/mL
- Mean Maximum 404-02 Plasma Concentration (nM) ± SEM [4, 14]: 1966 ± 199 nM
- Mean Maximum 404-02 Plasma Concentration (ng/mL) ± SEM [4, 14]: 1129 ± 114 ng/mL
